This passage reports relative viability results from the supplement of paper PMC10307832.

Assay in all cases: relative viability (nuclei count vs DMSO), 5 days (fraction); higher = more cells survive
Compound in experiment [1]: CN(C)C[C@@H]1CCn2cc(c3ccccc32)C2=C(C(=O)NC2=O)c2cn(c3ccccc23)CCO1 [Ruboxistaurin] + CS(=O)(=O)N1CCN(Cc2cc3nc(-c4cccc5[nH]ncc45)nc(N4CCOCC4)c3s2)CC1 [Pictilisib] (partner 1 µM)
A digest of the protocol: (§1)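 Cells from lung cancer lines were seeded into 1536-well plates and, one day later, dosed by pin tool. Treatments were either a single drug or a fixed dose of an anchor drug with five library-drug doses (not always all listed) in √10 steps. After 5 days, nuclei were stained in a one-step fixation (final 0.05% Triton X-100, 1% formaldehyde, 1 ug/ml Hoechst) and counted on 4× images, and relative viability is the treated-to-vehicle nuclei ratio, as the median of duplicate plates.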

Compound in experiment [2]: CN(C)C[C@@H]1CCn2cc(c3ccccc32)C2=C(C(=O)NC2=O)c2cn(c3ccccc23)CCO1 [Ruboxistaurin] + Cc1nc(NC(=O)N2CCC[C@H]2C(N)=O)sc1-c1ccnc(C(C)(C)C(F)(F)F)c1 [Alpelisib] (partner 2 µM)
A digest of the protocol:
as §1

Compound in experiment [3]: CN(C)C[C@@H]1CCn2cc(c3ccccc32)C2=C(C(=O)NC2=O)c2cn(c3ccccc23)CCO1 [Ruboxistaurin] + O=C(CCCCCCC(=O)Nc1ccccc1)NO [Vorinostat] (partner 1 µM)
A digest of the protocol: as §1

Compound in experiment [4]: CN(C)C[C@@H]1CCn2cc(c3ccccc32)C2=C(C(=O)NC2=O)c2cn(c3ccccc23)CCO1 [Ruboxistaurin] + N=C(N)NC(=N)NCCc1ccccc1 [Phenformin] (partner 250 µM)
A digest of the protocol:
as §1

Compound in experiment [5]: CN(C)C[C@@H]1CCn2cc(c3ccccc32)C2=C(C(=O)NC2=O)c2cn(c3ccccc23)CCO1 [Ruboxistaurin] + Cc1cc(Nc2cc(N3CCN(C)CC3)nc(Sc3ccc(NC(=O)C4CC4)cc3)n2)n[nH]1 [Tozasertib] (partner 0.1 µM)
A digest of the protocol: as §1

Consider LOU-NH91, for which the relative viability is 0.554 in experiment [1] (first compound 0.08 µM); 0.494 in experiment [1] (first compound 0.8 µM); 0.526 in experiment [1] (first compound 2.53 µM); 0.502 in experiment [1] (first compound 8 µM); 0.846 in experiment [2] (first compound 0.08 µM); 0.666 in experiment [2] (first compound 0.8 µM). The relative viability was found to be 0.705 in experiment [2] (first compound 2.53 µM); 0.676 in experiment [2] (first compound 8 µM); 0.954 in experiment [3] (first compound 0.08 µM); 0.868 in experiment [3] (first compound 0.8 µM); 0.958 in experiment [3] (first compound 2.53 µM); 0.878 in experiment [3] (first compound 8 µM). The relative viability in experiment [4] (first compound 0.08 µM) was determined as 0.827; in experiment [4] (first compound 0.8 µM) it was 0.666; in experiment [4] (first compound 2.53 µM) it was 0.722; in experiment [4] (first compound 8 µM) it was 0.751; in experiment [5] (first compound 0.08 µM), 0.744; in experiment [5] (first compound 0.8 µM) it was 0.509. The relative viability in experiment [5] (first compound 2.53 µM) stood at 0.674; in experiment [5] (first compound 8 µM), 0.76.

Regarding LU99A, the relative viability is 0.338 in experiment [1] (first compound 0.08 µM); 0.275 in experiment [1] (first compound 0.8 µM); 0.242 in experiment [1] (first compound 2.53 µM); 0.21 in experiment [1] (first compound 8 µM); 0.552 in experiment [2] (first compound 0.08 µM); 0.48 in experiment [2] (first compound 0.8 µM). Besides, the relative viability in experiment [2] (first compound 2.53 µM) was found to be 0.45; in experiment [2] (first compound 8 µM) it was 0.297; in experiment [3] (first compound 0.08 µM), 0.497; in experiment [3] (first compound 0.8 µM), 0.442; in experiment [3] (first compound 2.53 µM) it was 0.433; in experiment [3] (first compound 8 µM) it was 0.416. Besides, the relative viability in experiment [4] (first compound 0.08 µM) came out at 0.759; in experiment [4] (first compound 0.8 µM), 0.625; in experiment [4] (first compound 2.53 µM), 0.872; in experiment [4] (first compound 8 µM) it was 0.787; in experiment [5] (first compound 0.08 µM) it was 0.256; in experiment [5] (first compound 0.8 µM), 0.205. The results for the relative viability in experiment [5] (first compound 2.53 µM) and in experiment [5] (first compound 8 µM) were 0.221 and 0.229, respectively.

As to LXF-289, the relative viability stood at 0.815 in experiment [1] (first compound 0.08 µM); 0.718 in experiment [1] (first compound 0.8 µM); 0.736 in experiment [1] (first compound 2.53 µM); 0.647 in experiment [1] (first compound 8 µM); 1.11 in experiment [2] (first compound 0.08 µM); 0.952 in experiment [2] (first compound 0.8 µM). The relative viability in experiment [2] (first compound 2.53 µM) came out at 0.994; in experiment [2] (first compound 8 µM), 1; in experiment [3] (first compound 0.08 µM), 0.858; in experiment [3] (first compound 0.8 µM) it was 0.787; in experiment [3] (first compound 2.53 µM), 0.777; in experiment [3] (first compound 8 µM) it was 0.918. The relative viability in experiment [4] (first compound 0.08 µM) was 0.514; in experiment [4] (first compound 0.8 µM), 0.509; in experiment [4] (first compound 2.53 µM), 0.488; in experiment [4] (first compound 8 µM), 0.594; in experiment [5] (first compound 0.08 µM), 0.216; in experiment [5] (first compound 0.8 µM) it was 0.157. Further, the relative viability in experiment [5] (first compound 2.53 µM) came out at 0.195; in experiment [5] (first compound 8 µM), 0.209.

In the case of NCI-H23, the relative viability was found to be 0.428 in experiment [1] (first compound 0.08 µM); 0.374 in experiment [1] (first compound 0.8 µM); 0.392 in experiment [1] (first compound 2.53 µM); 0.38 in experiment [1] (first compound 8 µM); 0.831 in experiment [2] (first compound 0.08 µM); 0.617 in experiment [2] (first compound 0.8 µM). For the same cell line, the relative viability in experiment [2] (first compound 2.53 µM) was 0.71; in experiment [2] (first compound 8 µM) it was 0.686; in experiment [3] (first compound 0.08 µM) it was 0.425; in experiment [3] (first compound 0.8 µM), 0.564; in experiment [3] (first compound 2.53 µM), 0.548; in experiment [3] (first compound 8 µM), 0.453. Also, the relative viability in experiment [4] (first compound 0.08 µM) was 0.766; in experiment [4] (first compound 0.8 µM) it was 0.781; in experiment [4] (first compound 2.53 µM), 0.819; in experiment [4] (first compound 8 µM), 0.852; in experiment [5] (first compound 0.08 µM), 0.446; in experiment [5] (first compound 0.8 µM), 0.304. The relative viability in experiment [5] (first compound 2.53 µM) was 0.357; in experiment [5] (first compound 8 µM), 0.368.

In the case of NCI-H1563, the relative viability in experiment [1] (first compound 0.08 µM) is 0.626; in experiment [1] (first compound 0.8 µM), 0.662; in experiment [1] (first compound 2.53 µM) it was 0.601; in experiment [1] (first compound 8 µM) it was 0.618; in experiment [2] (first compound 0.08 µM) it was 0.972; in experiment [2] (first compound 0.8 µM), 0.867. Besides, the relative viability in experiment [2] (first compound 2.53 µM) stood at 1.05; in experiment [2] (first compound 8 µM) it was 0.849; in experiment [4] (first compound 0.08 µM), 0.67; in experiment [4] (first compound 0.8 µM), 0.654; in experiment [4] (first compound 2.53 µM) it was 0.702; in experiment [4] (first compound 8 µM), 0.693.

Consider NCI-H1650, for which the relative viability was 0.679 in experiment [1] (first compound 0.08 µM); 0.402 in experiment [1] (first compound 0.8 µM); 0.646 in experiment [1] (first compound 2.53 µM); 0.359 in experiment [1] (first compound 8 µM); 0.676 in experiment [3] (first compound 0.08 µM); 0.554 in experiment [3] (first compound 0.8 µM). The relative viability in experiment [3] (first compound 2.53 µM) stood at 0.685; in experiment [3] (first compound 8 µM), 0.569; in experiment [4] (first compound 0.08 µM), 0.542; in experiment [4] (first compound 0.8 µM), 0.387; in experiment [4] (first compound 2.53 µM), 0.4; in experiment [4] (first compound 8 µM) it was 0.287. Besides, the relative viability in experiment [5] (first compound 0.08 µM) amounted to 0.435; in experiment [5] (first compound 0.8 µM), 0.301; in experiment [5] (first compound 2.53 µM), 0.433; in experiment [5] (first compound 8 µM), 0.3.

NCI-H1703: the relative viability in experiment [1] (first compound 0.08 µM) is 0.198; in experiment [1] (first compound 2.53 µM), 0.277; in experiment [1] (first compound 8 µM) it was 0.23; in experiment [2] (first compound 0.08 µM) it was 0.356; in experiment [2] (first compound 0.8 µM), 0.323; in experiment [2] (first compound 2.53 µM) it was 0.366. Moreover, in experiment [2] (first compound 8 µM), the relative viability was 0.308.

As to NCI-H1792, the relative viability in experiment [1] (first compound 0.08 µM) is 0.258; in experiment [1] (first compound 0.8 µM) it was 0.231; in experiment [1] (first compound 2.53 µM), 0.246; in experiment [1] (first compound 8 µM) it was 0.233; in experiment [2] (first compound 0.08 µM), 0.77; in experiment [2] (first compound 0.8 µM), 0.62. For the same cell line, the relative viability in experiment [2] (first compound 2.53 µM) turned out to be 0.695; in experiment [2] (first compound 8 µM) it was 0.694; in experiment [4] (first compound 0.08 µM) it was 0.32; in experiment [4] (first compound 2.53 µM), 0.247; in experiment [4] (first compound 8 µM) it was 0.243.

For NCI-H2342, the relative viability in experiment [3] (first compound 0.08 µM) worked out at 0.888; in experiment [3] (first compound 0.8 µM), 0.69; in experiment [3] (first compound 2.53 µM) it was 0.768; in experiment [3] (first compound 8 µM) it was 0.93; in experiment [4] (first compound 0.08 µM), 0.626; in experiment [4] (first compound 0.8 µM), 0.585. In addition, the relative viability in experiment [4] (first compound 2.53 µM) is 0.616; in experiment [4] (first compound 8 µM), 0.597; in experiment [5] (first compound 0.08 µM), 0.578; in experiment [5] (first compound 0.8 µM) it was 0.56; in experiment [5] (first compound 2.53 µM) it was 0.461; in experiment [5] (first compound 8 µM) it was 0.497.

As for SW 900, the relative viability in experiment [3] (first compound 0.08 µM) stood at 0.738; in experiment [3] (first compound 0.8 µM) it was 0.47; in experiment [3] (first compound 2.53 µM), 0.603; in experiment [3] (first compound 8 µM), 0.496; in experiment [4] (first compound 0.08 µM), 0.71; in experiment [4] (first compound 0.8 µM), 0.597. Also, the relative viability in experiment [4] (first compound 2.53 µM) worked out at 0.564; in experiment [4] (first compound 8 µM), 0.55; in experiment [5] (first compound 0.08 µM), 0.647; in experiment [5] (first compound 0.8 µM), 0.499; in experiment [5] (first compound 2.53 µM) it was 0.656; in experiment [5] (first compound 8 µM) it was 0.452.
